Measured values from US11716994B2, “Combinations of Yersinia entomophaga and pesticides or other substances” (priority 2017, dated 2023).
Like-named read-outs stand apart in the source and are kept apart here.

How the values were obtained:
diamondback moth [1] = experiment: Leaf disk mortality assay, Y. entomophaga cells with chemical insecticides; details: for mortality at 0.29 µg/mL / mortality at 150 µg/mL: Plutella xylostella, foliar; for % Mort. Chem. / LT50 Chem.: diamondback moth
black cutworm = experiment: as above; details: for % Mort. Chem. / LT50 Chem.: black cutworm
diamondback moth [2] = experiment: whole plant or invertebrate; details: for LT50 (95% confidence intervals): 2nd instar diamondback moth; for mortality at 0.29 µg/mL: Plutella xylostella, foliar, Abbott's corrected
Source text: (§1) These were set to dry for 1 hr.
as §1
These were set to dry for 1 hr. Cabbage disks were then dipped in either 1% Luria broth (LB) media solution (controls and thiacloprid alone treatments) or in 1% cell free filtrate from a culture Y. entomophaga isolate O24G3R (Y. entomophaga alone or in combination with thiacloprid treatments).

Colorado potato beetle = experiment: Tomato leaf disk mortality assay, Y. entomophaga cells with chemical insecticides; details: for mortality at 0.88 µg/mL: Leptinotarsa decemlineata, in Solanum lycopersicum, foliar
cabbage looper [3] = details: for LT50 Chem. / % Mort. Chem.: Cabbage Looper
Yersinia entomophaga = experiment: CFU counts after exposure of Yersinia entomophaga to insecticides; format: cell-based; details: 1 hour contact
Source text: To test combinations of Yersinia entomophaga and pesticides for their ability to produce a pesticidal effect, or an effect on plant growth or yield, we first put various insecticides in contact with Yersinia to identify insecticides that had minimal toxicity to Yersinia entomophaga. The logic was that, if Yersinia entomophaga is to function well in combination with a chemical insecticide, the chemical insecticide would ideally have low or no effect on the ability of Yersinia entomophaga to survive, grow and/or to function.
To perform this study, we selected amounts of various insecticides based on the percent of the specific insecticide in the insecticide composition obtained from a manufacturer. We also considered the application rate of the particular insecticide, as recommended by the manufacturer. […] Generally, the 1× amount was considered possibly the lowest amount of insecticide that may be considered as an effective amount for use in the combinations disclosed herein. For each insecticide, we also used a higher amount of insecticide (generally a 5× or 10× amount).
The 1× and 5×/10× amounts of each insecticide were added to tubes along with 1 ml of ethyl acetate. The tubes were mixed until the insecticides dissolved. The tubes were left open in a fume hood overnight to allow the ethyl acetate to evaporate. The insecticide remained in the tubes, as a solid coat on the interior surface of the tubes.
A growing culture of Yersinia entomophaga, grown in LB medium, was diluted and 1 ml of the diluted culture was added to each tube containing the dried insecticide. The tubes were mixed and then left on the bench top for 1 hour. Then, 100 μl from each tube was plated onto LB plates in triplicate in CFU assays. Plates were incubated at 25° C. for 48 hours and colonies were counted.

fall armyworm = experiment: Leaf disk mortality assay, Y. entomophaga cells with chemical insecticides
cabbage looper [4] = test system: cabbage looper
[5] = 48 h, read-out: % Mortality (2DAT)
[6] = 168 h, read-out: % Mortality (7DAT)
[7] = 3rd instar, deltamethrin 0.175 mg/L, isolate O43NEW 1×10^4 cfu/mL
[8] = 3rd instar, deltamethrin 1.75 mg/L, isolate O43NEW 1×10^4 cfu/mL
[9] = 120 h, read-out: % Mortality (5DAT)
[10] = 144 h, read-out: % Mortality (6DAT)
[11] = 3rd instar, emamectin benzoate 0.002 mg/L, isolate O43NEW 1×10^3 cfu/mL
[12] = 3rd instar, emamectin benzoate 0.67 mg/L, isolate O23ZMJ 1×10^5 cfu/mL

**Q.** `CC1(C)[C@H](C(=O)O[C@H](C#N)c2cccc(Oc3ccccc3)c2)[C@@H]1C=C(Br)Br` [Deltamethrin] was tested. Which “LT50 (95% confidence intervals)” value (diamondback moth [1]; 3rd instar, deltamethrin 0.29 mg/L, isolate O43NEW 1×10^3 cfu/mL) did it give?
**A.** 11.58 days

**Q.** What about the mortality at 0.29 µg/mL (diamondback moth [1]; [5]) of the same compound?
**A.** 0%

**Q.** And the mortality at 0.29 µg/mL (diamondback moth [1]; 96 h, read-out: % Mortality (4DAT))?
**A.** 16%

**Q.** What about the mortality at 0.29 µg/mL (diamondback moth [1]; [6]) of the same compound?
**A.** 21%

**Q.** And the mortality at 0.29 µg/mL (diamondback moth [1]; 240 h, read-out: % Mortality (10DAT))?
**A.** 32%

**Q.** What about the mortality at 0.29 µg/mL (diamondback moth [1]; 336 h, read-out: % Mortality (14DAT)) of the same compound?
**A.** 54%

**Q.** And the mortality at 0.29 µg/mL (diamondback moth [1]; […], read-out: % Mortality (8DAT))?
**A.** 24%

**Q.** What about the “% Mort. Chem.” value (diamondback moth [1]; Deltamethrin 0.29 mg/L, 8 DAT) of the same compound?
**A.** 24%

**Q.** What about the “LT50 Chem.” value (diamondback moth [1]; Deltamethrin alone 0.29 mg/L) of the same compound?
**A.** 11.58 days

**Q.** What about the “% Mortality (3DAT)” value (black cutworm; [7]) of the same compound?
**A.** 5%

**Q.** What about the “% Mortality (6DAT)” value (black cutworm; [7]) of the same compound?
**A.** 35%

**Q.** And the “% Mortality (9DAT)” value (black cutworm; [7])?
**A.** 55%

**Q.** And the “% Mortality (10DAT)” value (black cutworm; [7])?
**A.** 63%

**Q.** And the “LT50 (95% confidence intervals)” value (black cutworm; [7])?
**A.** 7.67 days

**Q.** And the “% Mortality (3DAT)” value (black cutworm; [8])?
**A.** 45%

**Q.** What about the “LT50 (95% confidence intervals)” value (black cutworm; [8]) of the same compound?
**A.** 3.37 days

**Q.** What about the “% Mort. Chem.” value (black cutworm; Deltamethrin 0.175 mg/L, 6 DAT) of the same compound?
**A.** 35%

**Q.** And the “% Mort. Chem.” value (black cutworm; Deltamethrin 1.75 mg/L, 3 DAT)?
**A.** 45%

**Q.** What about the “LT50 Chem.” value (black cutworm; Deltamethrin alone 0.175 mg/L) of the same compound?
**A.** 7.67 days

**Q.** And the “LT50 Chem.” value (black cutworm; Deltamethrin alone 1.75 mg/L)?
**A.** 3.37 days

**Q.** What about the “LT50 (95% confidence intervals)” value (diamondback moth [2]; deltamethrin 0.29 mg/L, O43NEW filtrate 1%, alone or combined) of the same compound?
**A.** 11.58 days

**Q.** And the “LT50 (95% confidence intervals)” value (diamondback moth [2]; deltamethrin […], O333A4 filtrate 1%, alone or combined)?
**A.** 12.78 days

**Q.** What about the “LT50 Chem.” value (diamondback moth [2]; Diamondback moth, deltamethrin 0.29 mg/L) of the same compound?
**A.** 11.58 days

**Q.** What about the “% Mort. Chem.” value (diamondback moth [2]; Diamondback moth, deltamethrin 0.29 mg/L, 4 DAT) of the same compound?
**A.** 16%

**Q.** What about the “LT50 Chem.” value (diamondback moth [2]; Diamondback moth, deltamethrin […]) of the same compound?
**A.** 12.78 days

**Q.** What about the mortality at 0.29 µg/mL (diamondback moth [2]; 48 h, read-out: % Mortality (2DAT), 2nd instar diamondback moth, deltamethrin 0.29 mg/L, O43NEW filtrate 1%, alone or combined, 2 DAT) of the same compound?
**A.** 0%

**Q.** What about the mortality at 0.29 µg/mL (diamondback moth [2]; 72 h, read-out: % Mortality (3DAT), 2nd instar diamondback moth, deltamethrin 0.29 mg/L, O43NEW filtrate 1%, alone or combined, 3 DAT) of the same compound?
**A.** 5%

**Q.** What about the mortality at 0.29 µg/mL (diamondback moth [2]; 96 h, read-out: % Mortality (4DAT), 2nd instar diamondback moth, deltamethrin 0.29 mg/L, O43NEW filtrate 1%, alone or combined, 4 DAT) of the same compound?
**A.** 16%

**Q.** And the mortality at 0.29 µg/mL (diamondback moth [2]; 168 h, read-out: % Mortality (7DAT), 2nd instar diamondback moth, deltamethrin 0.29 mg/L, O43NEW filtrate 1%, alone or combined, 7 DAT)?
**A.** 21%

**Q.** And the mortality at 0.29 µg/mL (diamondback moth [2]; 216 h, read-out: % Mortality (9DAT), 2nd instar diamondback moth, deltamethrin 0.29 mg/L, O43NEW filtrate 1%, alone or combined, 9 DAT)?
**A.** 25%

**Q.** What about the “LT50 (95% confidence intervals)” value (Colorado potato beetle; 3rd instar larva, deltamethrin 0.88 mg/L, isolate O43NEW 1×10^7 cfu/mL) of the same compound?
**A.** 11.6 days

**Q.** And the “% Mort. Chem.” value (Colorado potato beetle; Colorado potato beetle, Deltamethrin 0.88 mg/L, 5 DAT)?
**A.** 30%

**Q.** And the “LT50 Chem.” value (Colorado potato beetle; Colorado potato beetle, Deltamethrin alone 0.88 mg/L)?
**A.** 11.60 days

**Q.** And the mortality at 0.88 µg/mL (Colorado potato beetle; [5])?
**A.** 30%

**Q.** What about the mortality at 0.88 µg/mL (Colorado potato beetle; [9]) of the same compound?
**A.** 30%

**Q.** What about the mortality at 0.88 µg/mL (Colorado potato beetle; [10]) of the same compound?
**A.** 30%

**Q.** And the mortality at 0.88 µg/mL (Colorado potato beetle; [6])?
**A.** 30%

**Q.** And the mortality at 0.88 µg/mL (Colorado potato beetle; 216 h, read-out: % Mortality (9DAT))?
**A.** 30%

**Q.** With `CN1COCN(Cc2cnc(Cl)s2)/C1=N\[N+](=O)[O-]` [Thiamethoxam] as the compound, how does the mortality at 150 µg/mL (diamondback moth [1]; [9]) read?
**A.** 11%

**Q.** What about the mortality at 150 µg/mL (diamondback moth [1]; [10]) of the same compound?
**A.** 16%

**Q.** And the “% Mort. Chem.” value (diamondback moth [1]; Thiamethoxam 150 mg/L, 6 DAT)?
**A.** 16%

**Q.** What about the “LT50 Chem.” value (diamondback moth [1]; Thiamethoxam alone 150 mg/L) of the same compound?
**A.** 10.09 days

**Q.** And the “LT50 (95% confidence intervals) in days” value (cabbage looper [3]; 3rd instar cabbage looper, thiamethoxam 150 mg/L, O43NEW undiluted filtrate, alone or combined)?
**A.** 6.97 (5.92-8.22) days

**Q.** What about the “LT50 Chem.” value (cabbage looper [3]; thiamethoxam 150 mg/L) of the same compound?
**A.** 6.97 days

**Q.** What about the “% Mort. Chem.” value (cabbage looper [3]; thiamethoxam 150 mg/L, DAT column prints 62) of the same compound?
**A.** 1.1%

**Q.** For Emamectin benzoate, which “% Mortality (4DAT)” value (diamondback moth [1]; [11]) is on record?
**A.** 5%

**Q.** And the “LT50 (95% confidence intervals) in days” value (diamondback moth [1]; [11])?
**A.** 6.21 (5.38-7.14) days

**Q.** What about the “% Mort. Chem.” value (diamondback moth [1]; Emamectin benzoate 0.002 mg/L, 4 DAT) of the same compound?
**A.** 5%

**Q.** What about the “LT50 Chem.” value (diamondback moth [1]; Emamectin benzoate alone 0.002 mg/L) of the same compound?
**A.** 6.21 days

**Q.** And the “Average CFU” value (Yersinia entomophaga; 1.5 mg insecticide)?
**A.** 489 CFU

**Q.** What about the “Average CFU” value (Yersinia entomophaga; 15 mg insecticide) of the same compound?
**A.** 459 CFU

**Q.** And the “LT50 (95% confidence intervals) in days” value (diamondback moth [2]; 3rd instar diamondback moth, emamectin benzoate 0.002 mg/L, O43NEW filtrate 1%, alone or combined)?
**A.** 6.21 (5.38-7.14) days

**Q.** And the “LT50 Chem.” value (diamondback moth [2]; Diamondback moth, emamectin benzoate 0.002 mg/L)?
**A.** 6.21 days

**Q.** What about the “% Mortality (4DAT)” value (fall armyworm; [12]) of the same compound?
**A.** 20%

**Q.** What about the “LT50 (95% confidence intervals) in days” value (fall armyworm; [12]) of the same compound?
**A.** 5.10 (4.65-5.59) days

**Q.** And the “LT75 (95% confidence intervals) in days” value (fall armyworm; 3rd instar, emamectin benzoate 2 mg/L, isolate O43NEW 1×10^6 cfu/mL)?
**A.** 6.54 (5.76-7.44) days

**Q.** What about the “% Mort. Chem.” value (fall armyworm; fall armyworm, Emamectin benzoate 0.67 mg/L, 4 DAT) of the same compound?
**A.** 20%

**Q.** What about the “LT50 Chem.” value (fall armyworm; fall armyworm, Emamectin benzoate alone 0.67 mg/L) of the same compound?
**A.** 5.10 days

**Q.** And the “LT50 Chem.” value (fall armyworm; fall armyworm, Emamectin benzoate alone 2 mg/L)?
**A.** 6.54 days

**Q.** And the “% Mortality (5DAT)” value (cabbage looper [3]; 3rd instar cabbage looper, emamectin benzoate 0.02 mg/L, O43NEW undiluted filtrate, alone or combined, 5 DAT, Abbott's corrected)?
**A.** 5%

**Q.** And the “% Mortality (12DAT)” value (cabbage looper [3]; 3rd instar cabbage looper, emamectin benzoate 0.02 mg/L, O43NEW undiluted filtrate, alone or combined, 12 DAT, Abbott's corrected)?
**A.** 94%

**Q.** And the “LT50 Chem.” value (cabbage looper [3]; emamectin benzoate 0.02 mg/L)?
**A.** 7.22 days

**Q.** What about the “% Mort. Chem.” value (cabbage looper [3]; emamectin benzoate 0.02 mg/L, 5 DAT) of the same compound?
**A.** 94%

**Q.** What about the “% Mort. Chem.” value (cabbage looper [4]; cabbage looper, Emamectin benzoate 0.02 mg/L, 7 DAT) of the same compound?
**A.** 13%

**Q.** And the “% Mortality (7DAT)” value (cabbage looper [4]; in vivo)?
**A.** 13%

**Q.** What about the “LT50 (95% confidence intervals) in days” value (cabbage looper [4]; in vivo) of the same compound?
**A.** 7.61 (7.08-8.19) days

**Q.** What about the “LT50 Chem.” value (cabbage looper [4]; in vivo) of the same compound?
**A.** 7.61 days
